# Results reported in patent US8124593B2, “Methods of treatment using sapacitabine” (Cyclacel Limited, priority 2007, dated 2012).
# Experiments:
# cytidine deaminase = cytidine deaminase (Homo sapiens, UniProt P32320); conditions: compared with ara-C; cited from earlier work
# CTCL = conditions: cited from earlier work
# colon cancer = conditions: model of colon cancer; cited from earlier work
# P388 leukemia = conditions: mouse P388 leukemia model; cited from earlier work
# [1] = test system: refractory solid tumours or lymphomas; test: Open label dose escalation study of oral sapacitabine b.i.d. for 7 or 14 consecutive days every 21 days; format: in vivo
# Method: The study was conducted at the Institute for Drug Development, Cancer Therapy and Research Center (CTRC) in San Antonio, Tex. and Fox Chase Cancer Center in Philadelphia, Pa. The primary objective of the study was to evaluate the safety profile of sapacitabine administered twice daily for 14 consecutive days or 7 consecutive days every 21 days.
# The study was an open label dose escalation study of oral sapacitabine administered twice daily (b.i.d.) for 7 or 14 consecutive days every 21 days. One treatment cycle was 3 weeks. At least 3 patients were enrolled at each dose level. Dose escalation proceeded if ≦⅓ or ≦ 2/6 patients experienced dose limiting toxicity (DLT) during the first treatment cycle.
# [2] = single-dose in rodents, repeat dose up to 3 months in mice and dogs; cited from earlier work
# [3] = test system: advanced leukemias or myelodysplastic syndromes; test: Phase I study, b.i.d. x 7 days orally every 21 days; format: in vivo
# Method: The Phase I study was conducted at M.D. Anderson Cancer Center (UTMDACC) in Houston, Tex. The primary objective was to define the MTD of a dosing schedule, b.i.d.×7 days orally every 21 days.
# Eligible patients had relapsed/refractory leukemias or MDS, or untreated disease if not willing to proceed with conventional systemic chemotherapy, adequate organ functions and performance status of 0-2. At least 3 patients were enrolled at each dose level. The MTD was the highest dose level at which ≦ 2/6 patients experienced a DLT during the first treatment cycle.
# [4] = test system: solid tumours or lymphomas; conditions: 14 days every 21 days, body surface area basis; cited from earlier work
# variety of cancers = conditions: phase I data; cited from earlier work
# [5] = test system: poorly differentiated gastric adenocarcinoma; conditions: human xenografts; cited from earlier work
# NSCLC = conditions: 10 mg/m^2 intravenously over 30 minutes every three weeks; cited from earlier work
# [6] = 7-day schedule every 21 days, oral
# [7] = relapsed or refractory AML and MDS
# Chain of cytidine deaminase (P32320 whole entry, species assumed): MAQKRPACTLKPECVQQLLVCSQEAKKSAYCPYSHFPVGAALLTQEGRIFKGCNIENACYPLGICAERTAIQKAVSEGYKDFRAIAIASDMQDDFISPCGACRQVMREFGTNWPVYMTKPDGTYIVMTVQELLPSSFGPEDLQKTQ
smiles,measurement,setting,value
"N#C[C@H]1[C@H](O)[C@@H](CO)O[C@H]1n1ccc(N)nc1=O [CNDAC, 2′-C-Cyano-2′-deoxy-β-D-arabino-pentafuranosylcytosine]",substrate of cytidine deaminase,cytidine deaminase,weak substrate
"Nc1ccn([C@@H]2O[C@H](CO)[C@@H](O)C2(F)F)c(=O)n1 [Gemcitabine, gemcitabine]",response rate,CTCL,60-70%
"CCCCCCCCCCCCCCCC(=O)Nc1ccn([C@@H]2O[C@H](CO)[C@@H](O)[C@@H]2C#N)c(=O)n1 [sapacitabine, 1-(2-C-cyano-2-deoxy-β-D-arabino-pentofuranosyl)-N^4-palmitoyl cytosine]",anticancer activity,colon cancer,strong anticancer activity
same,"increasing survival and preventing spread of metastases to the liver, comparison",colon cancer,superior to either gemcitabine or 5-FU
same,"antitumour activity, comparison",P388 leukemia,much more potent antitumour activity than 5′-DFUR and gemcitabine
same,MTD,[1]; [6],100 mg b.i.d.
same,RD (recommended dose),[1]; [6],75 mg b.i.d.
same,dose limiting toxicity,"[1]; 7 and 14 day schedules, 16 patients",reversible myelosuppression
same,best response by investigator assessment,"[1]; 7 day schedule, squamous cell carcinoma",stable disease in one patient
same,recommended dose,"[1]; 14 day schedule every 21 days, oral",50 mg b.i.d.
same,"non-hematological toxicities, severity",[1]; in vivo,mostly mild to moderate
same,major toxicities,[2],"hematopoietic, gastrointestinal, and testicular"
same,MTD,[3]; [6],375 mg b.i.d.
same,recommended dose,[3]; [6],325 mg b.i.d.
same,"patients with reduction in bone marrow blast counts to <5%, AML",[3]; AML subgroup of responders,9 patients
same,"patients with reduction in bone marrow blast counts to <5%, MDS",[3]; MDS subgroup of responders,2 patients
same,patients with reduction in bone marrow blast counts to <5%,[3]; all evaluable patients,11 patients of 42 evaluable
same,"common non-hematologic adverse events, intensity","[3]; all grades, regardless of causality",mild to moderate in intensity
same,CRs with incomplete recovery of platelets,[3]; in vivo,2 patients
same,complete remissions (CRs),[3]; in vivo,2 patients
same,deaths from complications of neutropenic colitis,[3]; in vivo,One
same,predominant DLT,[3]; in vivo,gastrointestinal toxicity
same,DLT: abdominal pain/small bowel obstruction,[3]; number of patients,1 n
same,DLT: diarrhea,[3]; number of patients,3 n
same,DLT: neutropenic colitis,[3]; number of patients,2 n
same,antileukemic activity,[3]; [7],promising antileukemic activity
same,tolerability,[3]; [7],well tolerated
same,recommended dose,[4],33 mg/m^2
same,dose limiting toxicity,variety of cancers,myelosuppression
same,tolerability,variety of cancers,well tolerated
same,"antitumour activity, comparison",[5],much more potent antitumour activity than 5′-DFUR and gemcitabine
Nc1ccn([C@@H]2CO[C@H](CO)O2)c(=O)n1 [troxacitabine],activity in NSCLC,NSCLC,little activity
